IC50 and melting point data for 30 compounds are collected here from PMC11578424, “Discovery of novel 2,4-diarylaminopyrimidine hydrazone derivatives as potent anti-thyroid cancer agents capable of inhibiting FAK” (Journal of Enzyme Inhibition and Medicinal Chemistry, 2024).

Like-named read-outs stand apart in the source and are kept apart here.

Data set [1] concerns thyroid cancer cells TPC-1. The experiment in a line: MTT antiproliferative assay. Conditions: MTT assay, 48 h, average with SD (n = 3, duplicate), read-out: IC50 (μM), antiproliferative activity against thyroid cancer cells TPC-1. It counts as cell-based. The protocol:
Thyroid cancer cells TCP-1 were provided by Wuhan Servicebio Co., Ltd. TCP-1 cells are cultured in RPMI-1640 medium supplemented with 10% foetal bovine serum (FBS), 100 U/mL penicillin, and 0.1 mg/mL streptomycin. All cells are maintained in a humidified incubator at 37 °C with 5% CO2.
The TCP-1 cell line is seeded into a 96-well plate and incubated under conditions of 37 °C and 5% CO2. After the cells adhere, different concentrations of compounds are added and the incubation continues for 48 h under the same conditions. Subsequently, MTT reagent is added to the medium and the incubation is continued for an additional 4 h at 37 °C. After the incubation, the medium is aspirated, and 150 μL of DMSO solution is added to dissolve the purple-blue crystals by shaking. The absorbance of the solution is measured at a wavelength of 490 nm. The IC50 value of the compounds is calculated using SPSS software version 20.0.
For orientation: Tetrazolium dyes change colour on reduction, which living cells bring about.

For orientation: IC50 means the concentration that gives 50% inhibition. In general, melting point refers to the temperature, or range, at which the solid turns liquid. `CNC(=O)c1ccccc1Nc1nc(N/N=C/c2ccc(Cl)cc2)ncc1Cl` [14 g, (E)-2-((5-chloro-2–(2-(4-chlorobenzylidene)hydrazineyl)pyrimidin-4-yl)amino)-N-methylbenzamide] had a melting point of 194.1 to 195.8 °C. Also, the IC50 in data set [1] (Homo sapiens, TPC1, 48 h) worked out at 0.409 ± 0.093 µM.
`CNC(=O)c1ccccc1Nc1nc(N/N=C/c2cccc(F)c2)ncc1Cl` [14 l, (E)-2-((5-chloro-2–(2-(3-fluorobenzylidene)hydrazineyl)pyrimidin-4-yl)amino)-N-methylbenzamide] yielded a melting point of 203.3 to 205.1 °C. Also, the IC50 in data set [1] (Homo sapiens, TPC1, 48 h) was 0.428 ± 0.009 µM.
The like results for `CNC(=O)c1ccccc1Nc1nc(N/N=C/c2cccc(C(F)(F)F)c2)ncc1Cl` [14 m, (E)-2-((5-chloro-2–(2-(3-(trifluoromethyl)benzylidene)hydrazineyl)pyrimidin-4-yl)amino)-N-methylbenzamide] were, in that order, 207.1 to 209.8 °C and 0.693 ± 0.017 µM.
For `CNC(=O)c1ccccc1Nc1nc(N/N=C/c2ccncc2)ncc1Cl` [14 u, (E)-2-((5-chloro-2–(2-(pyridin-4-ylmethylene)hydrazineyl)pyrimidin-4-yl)amino)-N-methylbenzamide] the same measures were 215.1 to 216.8 °C and 0.189 ± 0.005 µM.
The like results for `CNC(=O)c1ccccc1Nc1nc(N/N=C/c2cn(C)c3ccccc23)ncc1Cl` [14 y] were, in that order, 217.2 to 219.1 °C and 0.425 ± 0.023 µM.
As for `CNC(=O)c1ccccc1Nc1nc(N/N=C/c2ccccc2)ncc1Cl` [14a, (E)-2-((2–(2-benzylidenehydrazineyl)-5-chloropyrimidin-4-yl)amino)-N-methylbenzamide], the melting point was in the range of 199.1 to 202.1 °C. Besides, in data set [1] (Homo sapiens, TPC1, 48 h), the IC50 came to 0.306 µM. Moreover, the IC50 in data set [1] stood at 0.246 ± 0.038 µM.
The compound `CNC(=O)c1ccccc1Nc1nc(N/N=C/c2ccc3[nH]ccc3c2)ncc1Cl` [14aa, (E)-2-((2–(2-((1H-indol-5-yl)methylene)hydrazineyl)-5-chloropyrimidin-4-yl)amino)-N-methylbenzamide] had a melting point of 218.1 to 219.9 °C. Further, the IC50 in data set [1] (Homo sapiens, TPC1, 48 h) came to 0.331 ± 0.012 µM.
In turn, `CNC(=O)c1ccccc1Nc1nc(N/N=C/c2ccc3cc[nH]c3c2)ncc1Cl` [14ab, (E)-2-((2–(2-((1H-indol-6-yl)methylene)hydrazineyl)-5-chloropyrimidin-4-yl)amino)-N-methylbenzamide] registered a melting point of 216.1 to 217.7 °C. The IC50 in data set [1] (Homo sapiens, TPC1, 48 h) is 0.364 ± 0.015 µM.
Compound `CNC(=O)c1ccccc1Nc1nc(N/N=C(\C)c2ccc(OC)cc2)ncc1Cl` [14ac, (E)-2-((5-chloro-2–(2-(1–(4-methoxyphenyl)ethylidene)hydrazineyl)pyrimidin-4-yl)amino)-N-methylbenzamide] yielded a melting point of 216.7 to 217.1 °C. In data set [1] (Homo sapiens, TPC1, 48 h), the IC50 is 0.612 ± 0.016 µM.
The like results for `CNC(=O)c1ccccc1Nc1nc(N/N=C(\C)c2ccc(F)cc2)ncc1Cl` [14ad, (E)-2-((5-chloro-2–(2-(1–(4-fluorophenyl)ethylidene)hydrazineyl)pyrimidin-4-yl)amino)-N-methylbenzamide] were, in that order, 222.6 to 223.8 °C and 1.46 ± 0.066 µM.
For `CNC(=O)c1ccccc1Nc1nc(N/N=C/c2ccc(C)cc2)ncc1Cl` [14b, (E)-2-((5-chloro-2–(2-(4-methylbenzylidene)hydrazineyl)pyrimidin-4-yl)amino)-N-methylbenzamide] the same measures were 207.1 to 208.1 °C and 0.296 ± 0.021 µM.
The like results for `CNC(=O)c1ccccc1Nc1nc(N/N=C/c2ccc(OC)cc2)ncc1Cl` [14c, (E)-2-((5-chloro-2–(2-(4-methoxybenzylidene)hydrazineyl)pyrimidin-4-yl)amino)-N-methylbenzamide] were, in that order, 187.7 to 188.9 °C and 0.257 ± 0.004 µM.
`CNC(=O)c1ccccc1Nc1nc(N/N=C/c2ccc(O)cc2)ncc1Cl` [14d, (E)-2-((5-chloro-2–(2-(4-hydroxybenzylidene)hydrazineyl)pyrimidin-4-yl)amino)-N-methylbenzamide]: the melting point was 187.8 to 189.2 °C. In data set [1] (Homo sapiens, TPC1, 48 h), the IC50 worked out at 0.255 ± 0.025 µM.
The like results for `CNC(=O)c1ccccc1Nc1nc(N/N=C/c2ccc(C(F)(F)F)cc2)ncc1Cl` [14e, (E)-2-((5-chloro-2–(2-(4-(trifluoromethyl)benzylidene)hydrazineyl)pyrimidin-4-yl)amino)-N-methylbenzamide] were, in that order, 206.6 to 208.8 °C and 0.193 ± 0.029 µM.
Turning to `CNC(=O)c1ccccc1Nc1nc(N/N=C/c2ccc(Br)cc2)ncc1Cl` [14h, (E)-2-((2–(2-(4-bromobenzylidene)hydrazineyl)-5-chloropyrimidin-4-yl)amino)-N-methylbenzamide], the melting point fell in the range of 192.1 to 193.2 °C. For the same compound, the IC50 in data set [1] (Homo sapiens, TPC1, 48 h) was found to be 0.59 ± 0.024 µM.
The compound `CNC(=O)c1ccccc1Nc1nc(N/N=C/c2ccc([N+](=O)[O-])cc2)ncc1Cl` [14i, (E)-2-((5-chloro-2–(2-(4-nitrobenzylidene)hydrazineyl)pyrimidin-4-yl)amino)-N-methylbenzamide] gave a melting point of 201.7 to 202.8 °C. In addition, the IC50 in data set [1] (Homo sapiens, TPC1, 48 h) stood at 0.157 ± 0.008 µM.
The like results for `CNC(=O)c1ccccc1Nc1nc(N/N=C/c2ccc(C#N)cc2)ncc1Cl` [14j, (E)-2-((5-chloro-2–(2-(4-cyanobenzylidene)hydrazineyl)pyrimidin-4-yl)amino)-N-methylbenzamide] were, in that order, 200.7 to 202.1 °C and 0.126 ± 0.011 µM.
The like results for `CNC(=O)c1ccccc1Nc1nc(N/N=C/c2cccc(OC)c2)ncc1Cl` [14k, (E)-2-((5-chloro-2–(2-(3-methoxybenzylidene)hydrazineyl)pyrimidin-4-yl)amino)-N-methylbenzamide] were, in that order, 199.3 to 200.4 °C and 0.517 ± 0.031 µM.
`CNC(=O)c1ccccc1Nc1nc(N/N=C/c2ccc(OC)cc2OC)ncc1Cl` [14n, (E)-2-((5-chloro-2–(2-(2,4-dimethoxybenzylidene)hydrazineyl)pyrimidin-4-yl)amino)-N-methylbenzamide] came in with a melting point of 213.1 to 214.7 °C.
`CNC(=O)c1ccccc1Nc1nc(N/N=C/c2ccc(OC)c(OC)c2)ncc1Cl` [14o, (E)-2-((5-chloro-2–(2-(3,4-dimethoxybenzylidene)hydrazineyl)pyrimidin-4-yl)amino)-N-methylbenzamide] showed a melting point of 214.1 to 215.2 °C. Further, the IC50 in data set [1] (Homo sapiens, TPC1, 48 h) amounted to 0.434 ± 0.012 µM.
The like results for `CNC(=O)c1ccccc1Nc1nc(N/N=C/c2ccc(OC)cc2F)ncc1Cl` [14p, (E)-2-((5-chloro-2–(2-(2-fluoro-4-methoxybenzylidene)hydrazineyl)pyrimidin-4-yl)amino)-N-methylbenzamide] were, in that order, 218.1 to 219.4 °C and 0.228 ± 0.065 µM.
The compound `CNC(=O)c1ccccc1Nc1nc(N/N=C/c2ccc(OC)c(F)c2)ncc1Cl` [14q, (E)-2-((5-chloro-2–(2-(3-fluoro-4-methoxybenzylidene)hydrazineyl)pyrimidin-4-yl)amino)-N-methylbenzamide] returned a melting point of 234.1 to 235.7 °C. For the same compound, the IC50 in data set [1] (Homo sapiens, TPC1, 48 h) was 0.386 ± 0.047 µM.
The compound `CNC(=O)c1ccccc1Nc1nc(N/N=C/c2ccc(F)cc2F)ncc1Cl` [14r, (E)-2-((5-chloro-2–(2-(2,4-difluorobenzylidene)hydrazineyl)pyrimidin-4-yl)amino)-N-methylbenzamide] had a melting point of 243.2 to 245.1 °C. Besides, in data set [1] (Homo sapiens, TPC1, 48 h), the IC50 was 0.122 ± 0.032 µM.
The like results for `CNC(=O)c1ccccc1Nc1nc(N/N=C/c2ccccn2)ncc1Cl` [14s, (E)-2-((5-chloro-2–(2-(pyridin-2-ylmethylene)hydrazineyl)pyrimidin-4-yl)amino)-N-methylbenzamide] were, in that order, 217.1 to 218.2 °C and 0.272 ± 0.016 µM.
For `CNC(=O)c1ccccc1Nc1nc(N/N=C/c2cccnc2)ncc1Cl` [14t, (E)-2-((5-chloro-2–(2-(pyridin-3-ylmethylene)hydrazineyl)pyrimidin-4-yl)amino)-N-methylbenzamide] the same measures were 217.1 to 218.1 °C and 0.243 ± 0.001 µM.
The like results for `CNC(=O)c1ccccc1Nc1nc(N/N=C/c2cccs2)ncc1Cl` [14v, (E)-2-((5-chloro-2–(2-(thiophen-2-ylmethylene)hydrazineyl)pyrimidin-4-yl)amino)-N-methylbenzamide] were, in that order, 214.6 to 216.1 °C and 0.153 ± 0.005 µM.
`CNC(=O)c1ccccc1Nc1nc(N/N=C/c2ccc3cccnc3c2)ncc1Cl` [14w, (E)-2-((5-chloro-2–(2-(quinolin-7-ylmethylene)hydrazineyl)pyrimidin-4-yl)amino)-N-methylbenzamide] registered a melting point of 241.7 to 242.1 °C. In addition, in data set [1] (Homo sapiens, TPC1, 48 h), the IC50 turned out to be 0.413 ± 0.015 µM.
For `CNC(=O)c1ccccc1Nc1nc(N/N=C/c2c[nH]c3ccccc23)ncc1Cl` [14x, (E)-2-((2–(2-((1H-indol-3-yl)methylene)hydrazineyl)-5-chloropyrimidin-4-yl)amino)-N-methylbenzamide] the same measures were 203.3 to 204.8 °C and 0.357 ± 0.01 µM.
For `CNC(=O)c1ccccc1Nc1nc(N/N=C/c2c[nH]c3ccc(OC)cc23)ncc1Cl` [14z, (E)-2-((5-chloro-2–(2-((5-methoxy-1H-indol-3-yl)methylene) hydrazineyl)pyrimidin-4-yl)amino)-N-methylbenzamide], the melting point was in the range of 217.1 to 218.2 °C. Besides, the IC50 in data set [1] (Homo sapiens, TPC1, 48 h) was 0.624 ± 0.044 µM.
Regarding `CNC(=O)c1ccccc1Nc1nc(Nc2ccc(N3CCOCC3)cc2OC)ncc1Cl` [TAE-226, reference compound], the IC50 in data set [1] (Homo sapiens, TPC1, 48 h) is 1.08 ± 0.023 µM.
